Assay results taken from paper PMC7747594, “Protease-activated receptor-2 ligands reveal orthosteric and allosteric mechanisms of receptor inhibition” (Communications Biology, 2020).
Where “and” joins values, the source holds several entries; their conditions need not be identical. Equal entries are not always repeated. Where two headings read alike, the source gives them in different places. Square brackets hold non-standard residues; d marks the D form. Peptide text beside a SMILES is read from it. * marks the point of attachment. Orn = NCCC[C@H](N)C(=O)O; 2Furoyl = O=C(c1ccco1)*

Columns and labels:
hPAR2 [1] = biological target: T1, hPAR2 (Homo sapiens, UniProt P55085); experiment: Schild and allosteric model analysis of Ca^2+ mobilisation in CHO-hPAR2 cells (2f-LIGRL-NH2 or trypsin); format: cell-based; design: key to Relative activity: (Emax·EC50')/(Emax'·EC50), Hill slope held at 1; Emax: scale not given here
T1 sequence (P55085 26-397): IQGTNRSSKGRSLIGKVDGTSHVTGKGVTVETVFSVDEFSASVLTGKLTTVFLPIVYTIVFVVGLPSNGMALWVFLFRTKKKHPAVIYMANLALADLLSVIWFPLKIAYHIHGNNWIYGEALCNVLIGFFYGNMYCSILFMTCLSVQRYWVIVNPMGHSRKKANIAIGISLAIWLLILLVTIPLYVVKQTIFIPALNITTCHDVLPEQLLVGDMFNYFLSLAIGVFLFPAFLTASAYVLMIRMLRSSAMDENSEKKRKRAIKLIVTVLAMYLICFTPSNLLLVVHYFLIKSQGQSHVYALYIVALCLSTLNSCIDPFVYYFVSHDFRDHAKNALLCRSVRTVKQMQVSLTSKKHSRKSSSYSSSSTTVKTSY
Method: (§1) Cells were loaded with Fluo-8 NW calcium dye (AAT Bioquest) for 30 min at 37 °C before compounds in Hank’s balanced salt solution (HBSS, ThermoFisher Scientific) with 20 mM HEPES (ThermoFisher Scientific), 0.1% bovine serum albumin (BSA, Sigma) and 0.5% DMSO were added and simultaneously evaluated for changes in intracellular [Ca^2+] using FLIPR TETRA (Molecular Devices) to detect agonism. For each concentration, the difference between the maximum peak Ca^2+ response and baseline response is reported. […] Antagonism experiments were also carried out on 1321N1-PAR2[WT], 1321N1-PAR2[F154A], and 1321N1-PAR2[G157C] as described. Experiments with trypsin in 1321N1-hPAR2 cells were performed in the presence of 1 µM Vorapaxar (Chemtronica) to remove any interference of PAR1 activity. […] Antagonism experiments for CHO-hPAR2 and HT-29 cells were performed in 96-well plates at 30,000 cells/well. Cells were loaded with Fluo-3 AM calcium dye (Sigma-Aldrich) for 60 min at 37 °C in HBSS with 1% FBS, 0.2% pluronic acid, 20 mM HEPES and 2.5 mM probenecid prior to the addition of antagonist. The antagonist was pre-incubated for 60 min at 37 °C followed by the addition of bovine trypsin (30 nM) at EC80. Intracellular [Ca^2+] flux was measured using FLIPR TETRA (Molecular Devices) and the difference between the maximum peak Ca^2+ response and baseline response is reported.
(§2) Binding data were analysed using the One site – Fit Ki model in GraphPad Prism 8 (GraphPad Software) to determine binding affinity. Pharmacology in vitro potency data was analysed with a 4-parameter logistic fit using the equation y = Bottom + (Top − Bottom)/[…] where y is the response, x is the 10-logarithm of the drug concentration, Bottom is no response and Top is full response in GraphPad Prism 8 or Genedata Screener (Genedata). pEC50 and pIC50 data are presented as mean ± standard error of the mean (s.e.m.) derived from the number of independent experiments stated. Schild slope analysis was calculated using Graphpad Prism 8 Gaddum/Schild EC50 global fitting (shared model parameters between all data sets) competitive model. […] Schild slope quantifies the shifts in agonist response in the presence of antagonist, a Schild slope of 1 indicates the antagonist is competitive and extra-sum-of-squares F-test (p < 0.05) was used to compare the calculated Schild slope against a hypothetical Schild slope of 1. […] The relative activity was calculated using (EmaxEC50’)/(Emax’EC50) with the Hill slope help constant at 1. EC50’ and Emax’ denote the EC50 and Emax in the absence of allosteric modulator, while EC50 and Emax denote those measured in the presence of allosteric modulator. When the Hill slope = 1, the relative activity plot approaches an asymptote corresponding to the estimate of the γ value.

hPAR2 [2] = biological target: T1, hPAR2; experiment: Europium-tagged competition binding assay against Eu-tagged-2f-LIGRLO(dtpa)-NH2 on CHO-hPAR2 cells; design: expressed in transfected cells; host or cells: Flp-In CHO; details: determined with Eu-tagged-2f-LIGRLO(dtpa)-NH2; read-out: equilibrium dissociation constant pKA / pKB (converted)
Method: CHO-hPAR2 cells were seeded overnight in 384-well plate at 2.5 × 10^4 cells/well and blocked with 2% BSA for 60 min. […] Cells were washed 3× with PBS supplemented with 20 µM EDTA, 0.01% Tween and 0.2% BSA followed by addition of DELFIA Enhancement Solution (Perkin Elmer) for 90 min. Time-resolved fluorescence was measured with PHERAstar FS reader (BMG Labtech).
as §2

rat PAR2 = biological target: T2, rat PAR2 (Rattus norvegicus, UniProt Q63645); experiment: Ca^2+ flux assay, inhibition of SLIGRL-NH2 activation in rat KNRK cells; format: cell-based
T2 construct: a rat KNRK cell line with endogenous expression of rat PAR2; host or cells: rat KNRK cells
T2 sequence (Q63645 26-397): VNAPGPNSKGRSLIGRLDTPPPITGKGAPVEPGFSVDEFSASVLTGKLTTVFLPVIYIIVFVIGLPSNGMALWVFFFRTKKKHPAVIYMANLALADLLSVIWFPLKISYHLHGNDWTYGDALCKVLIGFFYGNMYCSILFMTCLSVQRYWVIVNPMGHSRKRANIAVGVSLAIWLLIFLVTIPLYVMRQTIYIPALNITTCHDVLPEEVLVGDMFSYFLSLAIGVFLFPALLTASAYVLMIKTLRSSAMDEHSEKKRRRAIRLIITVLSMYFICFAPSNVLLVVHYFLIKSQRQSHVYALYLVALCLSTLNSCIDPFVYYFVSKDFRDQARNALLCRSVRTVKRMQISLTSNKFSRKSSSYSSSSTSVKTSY

hPAR2 [3] = biological target: T1, hPAR2; experiment: IP1 HTRF assay, inhibition of SLIGRL-NH2 in 1321N1-hPAR2 cells; format: cell-based; details: SLIGRL-NH2, 1321N1-hPAR2 cells; mean ± s.e.m.; read-out: IP1 (hPAR2) pIC50 (converted)
Method: Inhibition of PAR2-induced inositol-1-phosphate (IP1) production was measured in 1321N1-hPAR2 cells using IP-One Gq HTRF assay kit (Cisbio). […] Next, EC80 of SLIGRL-NH2 (70 µM) supplemented with 50 mM LiCl was added and incubated for 60 min at 37 °C. Detection of IP1 production was performed according to the manufacturer’s protocol and HTRF was measured using PHERAstar (BMG LabTech). Data were normalised to [IP1] using a standard curve.
as §2

hPAR2 [4] = biological target: T1, hPAR2; experiment: Ca^2+ flux assay (FLIPR), inhibition of SLIGRL-NH2 activation in 1321N1-hPAR2 cells; format: cell-based; details: SLIGRL-NH2, 1321N1-hPAR2 cells; mean ± s.e.m.; read-out: Ca^2+ flux (hPAR2) pIC50 (converted)
Method: as §1, §2

hPAR2 [5] = biological target: T1, hPAR2; experiment: Ca^2+ flux assay, inhibition of trypsin activation in 1321N1-hPAR2 cells (with 1 µM Vorapaxar); format: cell-based; details: 1321N1-hPAR2 cells, 1 µM Vorapaxar
hPAR2 [6] = biological target: T1, hPAR2; experiment: pERK1/2 HTRF assay, inhibition of SLIGRL-NH2 in U2OS-hPAR2 cells; format: cell-based; details: SLIGRL-NH2, U2OS-hPAR2; mean ± s.e.m.; read-out: pERK1/2 (hPAR2) pIC50 (converted)
Method: Phosphorylation of ERK1/2 was measured in U2OS-hPAR2 cells using Phospho-ERK1/2 (Thr202/Tyr204) assay kit (64ERKPEH Cisbio) and the 2 plate manufacturer’s protocol with the following modifications. Cells were seeded in McCoy’s 5A media containing 10% FBS at 15,000 cells per well in 384-well plates and incubated overnight at 37 °C, 5% CO2. Antagonist compounds (30 µM–1 nM) were incubated with the cells for 30 min prior to the addition of agonist SLIGRL-NH2 (10 µM) at EC80 and further incubation for 5 min at 37 °C. The supernatant was removed from the wells and lysis buffer was added to the cells and incubated with shaking at room temperature for 30 min. The cell lysate was transferred into a small-volume 384-well plate containing detection antibodies and incubated for 4 h at room temperature in the dark. Plates were read for HTRF signal on PHERAstar (BMG LabTech). In addition, phosphorylation of ERK1/2 was measured in CHO-hPAR2 using AlphaLISA SureFire Ultra pERK1/2 (Thr202/Tyr204) (Perkin Elmer). Cells were seeded at a density of 2000 cells per well in a 384-well proxiplate and incubated overnight. […] After incubation, cell lysis buffer was added with shaking for 30 min. Antibodies and beads were added and incubated for 4 h at room temperature. AlphaLISA signal was measured using a PHERAstar (BMG LabTech).
as §2

hPAR2 [7] = biological target: T1, hPAR2; experiment: β-arrestin-2 recruitment assay, inhibition of SLIGRL-NH2 in U2OS-hPAR2 cells; format: cell-based; details: SLIGRL-NH2, U2OS-hPAR2; mean ± s.e.m.; read-out: β-arrestin (hPAR2) pIC50 (converted)
Method: β‐Arrestin-2 recruitment was measured in U2OS-hPAR2 cells using the DiscoverX assay kit, according to the manufacturer’s instructions. Briefly, cells were seeded in McCoy’s 5A media containing 10% FBS at 4000 cells per well in 384-well plates and incubated overnight at 37 °C, 5% CO2. Antagonist compounds (30 µM–1 nM) were incubated with the cells for 30 min prior to the addition of agonist SLIGRL-NH2 (10 µM) at EC80 and further incubation for 90 min at 37 °C. Working detection solution (12 µl) was then added to each well, incubated at room temperature in the dark for 60 min and the chemiluminescence signal read on the EnVision microplate reader (Perkin Elmer).
as §2

parental 1321N1 cells = experiment: Ca^2+ flux assay, agonist mode, parental 1321N1 cells; format: cell-based; design: Ca2+ response (Fig 2c), individual replicate values: unit not given here; details: control
Method: as §1

[8] = SLIGRL-NH2, rat PAR2 in KNRK cells, mean ± s.e.m., read-out: Ca^2+ flux (rPAR2) pIC50 (converted)
[9] = agonist in presence of AZ3451 0.1 µM
[10] = agonist in presence of AZ3451 0.3 µM
[11] = agonist in presence of AZ3451 1 µM
[12] = agonist in presence of AZ3451 3 µM
[13] = agonist in presence of AZ3451 10 µM
[14] = agonist in presence of AZ3451 30 µM, CHO-hPAR2, Ca^2+

## CC[C@H](C)[C@H](NC(=O)[C@H](CC(C)C)NC(=O)c1ccco1)C(=O)NCC(=O)N[C@@H](CCCNC(=N)N)C(=O)N[C@@H](CC(C)C)C(N)=O [2f-LIGRL-NH2, reference compound]
hPAR2 [1]
  EC50: 250 nM

## CC[C@H](C)[C@H](NC(=O)[C@H](CC(C)C)NC(=O)c1ccco1)C(=O)NCC(=O)N[C@@H](CCCN=C(N)N)C(=O)N[C@@H](CC(C)C)C(=O)N[C@@H](CCCN)C(N)=O [2f-LIGRLO-NH2, reference compound] (2Furoyl-LIGRL[Orn]-NH2)
hPAR2 [2]
  Kb: 794 nM

## CCc1ccc2c(F)ccc(C(O)c3ncc[nH]3)n12 (stereo not shown) [AZ0107]
Rat PAR2
  IC50: 3160 nM

## C[C@@H](C1CCOCC1)n1c(-c2cc3c(cc2Br)OCO3)nc2cc(C(=O)Nc3ccc(C#N)cc3)ccc21 [AZ7126]
hPAR2 [3]
  IC50: 79.4 nM
hPAR2 [4]
  IC50: 7.94 nM
hPAR2 [5]
  shape of inhibition of trypsin-induced Ca^2+ mobilisation: biphasic inhibition curves
hPAR2 [6]
  IC50: 200 nM
hPAR2 [7]
  IC50: 63.1 nM
Rat PAR2; [8]
  IC50: 5.01 nM

## C[C@@H](C1CCCCC1)n1c(-c2cc3c(cc2Br)OCO3)nc2cc(C(=O)Nc3ccccc3)ccc21 [AZ8935]
hPAR2 [3]
  IC50: 302 nM
hPAR2 [4]
  IC50: 20 nM
hPAR2 [5]
  shape of inhibition of trypsin-induced Ca^2+ mobilisation: biphasic inhibition curves
hPAR2 [6]
  IC50: 1260 nM
hPAR2 [7]
  IC50: 380 nM
Rat PAR2; [8]
  IC50: 7.94 nM

## CC[C@H](C)[C@H](NC(=O)[C@H](CC1CCCCC1)NC(=O)c1ccno1)C(=O)NCc1cccc(C(=O)N2CCC(CN)CC2)c1 [GB110, reference compound]
Parental 1321N1 cells; [compound],M -4.30103
  Ca2+ response (Fig 2c), individual replicate values: 2.5854 and 0.2936 and 4.934 and 1.6114
Parental 1321N1 cells; [compound],M -4.77815
  Ca2+ response (Fig 2c), individual replicate values: 2.299 and 3.846 and -3.259
Parental 1321N1 cells; [compound],M -5.25527
  Ca2+ response (Fig 2c), individual replicate values: 4.705 and 2.815 and -0.222 and 3.388
Parental 1321N1 cells; [compound],M -5.73239
  Ca2+ response (Fig 2c), individual replicate values: 1.44 and 1.382
Parental 1321N1 cells; [compound],M -6.20952
  Ca2+ response (Fig 2c), individual replicate values: 3.273 and 1.783 and 1.382 and 0.4082
Parental 1321N1 cells; [compound],M -6.68664
  Ca2+ response (Fig 2c), individual replicate values: 2.872 and -6.524
Parental 1321N1 cells; [compound],M -7.16376
  Ca2+ response (Fig 2c), individual replicate values: -2.227 and 0.1217 and -2.055 and -7.498
Parental 1321N1 cells; [compound],M -7.64088
  Ca2+ response (Fig 2c), individual replicate values: -2.514 and 3.502 and -1.826 and -6.754
Parental 1321N1 cells; [compound],M -8.118
  Ca2+ response (Fig 2c), individual replicate values: -3.774 and -3.545 and -0.5085
Parental 1321N1 cells; [compound],M -8.59512
  Ca2+ response (Fig 2c), individual replicate values: -10.4777 and -3.774 and -5.436 and -3.201

## Trypsin
hPAR2 [1]; agonist alone, AZ3451 0 µM
  Emax: 102
  Relative activity: 1
hPAR2 [1]; agonist alone, AZ3451 0 µM, read-out: EC50
  EC50: 6 nM
hPAR2 [1]; [9]
  Emax: 96
  Relative activity: 0.43
hPAR2 [1]; [10]
  Emax: 90
  Relative activity: 0.28
hPAR2 [1]; [11]
  Emax: 90
  Relative activity: 0.20
hPAR2 [1]; [12]
  Emax: 89
  Relative activity: 0.17
hPAR2 [1]; [13]
  Emax: 74
  Relative activity: 0.12
hPAR2 [1]; [14]
  Emax: 61
  Relative activity: 0.09
